From PMC8126080, “Three Small Molecule Entities (MPK18, MPK334 and YAK308) with Activity against Haemonchus contortus In Vitro” (Molecules, 2021)
“Also recorded” adds a separate entry of the source. Read-outs that look alike come from different tables or passages of the source.

Assays:
Format in all cases: cell-based
[1] = Toxicity on HepG2 cells (crystal violet staining); details: HepG2 human hepatoma cells
Protocol: HepG2 human hepatoma cells were seeded into wells of a 96-well microtitre plate in 80 µL of Dulbecco’s modified eagle medium (DMEM), supplemented with 10% foetal bovine serum, 100 U/mL of penicillin, 100 µg/mL of streptomycin and 0.25 µg/mL of amphotericin B (DMEM*) at a density of 1 × 10^5 cells per well. Cells were allowed to adhere for 16 h at 37 °C and 5% (v/v) CO2 at >90% humidity, and incubated with individual, serially-diluted compounds (7-points, 2-fold dilution in DMEM*, from 100 µM to 1.56 µM) in a final volume of 100 µL. Doxorubicin (10 µM) and DMEM* + 0.25% DMSO (vehicle), serving as positive and negative controls, respectively, were added to the individual 96-well plates. Monepantel and moxidectin were also serially diluted—prepared in the same manner as active compounds—and used as ‘negative’ reference controls. After 48 h of incubation, cellular viability was determined by the crystal violet staining assay. The absorbance at 595 nm of treated cells was compared with that of the controls (exposed only to the vehicle, with 100% viability). Compounds and controls were tested in triplicate. To determine the half cytotoxic concentration (CC50) values, compound concentrations were log10-transformed, fitted using a variable slope four-parameter equation with a least squares (ordinary) fit model employing GraphPad Prism (v. 9.0.2) software.

[2] = test system: exsheathed third-stage larvae (xL3) of Haemonchus contortus; test: Dose-response assay, inhibition of larval motility; details: for xL3 Motility (72 h) Inhibition (%): concentration not given; for IC50: Haemonchus contortus, 72 h incubation, mean ± SEM, three independent experiments in triplicate
Protocol: (§1) Haemonchus contortus (Haecon-5 strain) was maintained in experimental sheep, in accordance with institutional animal ethics approval (permit no. 1714374; The University of Melbourne). Helminth-free Merino sheep (male; eight months of age) were inoculated orally with 7000 third-stage larvae (L3s) of H. contortus. Faecal samples containing H. contortus eggs were collected every day from 21 days following inoculation. These samples were incubated at 27 °C for one week to produce L3s, which were harvested and sieved through two layers of nylon mesh ([…] pore size; Rowe Scientific, Australia) to remove debris and dead larvae, and then stored at 11 °C for up to 6 months until use. To produce exsheathed third-stage larvae (xL3s) for in vitro assays, L3s were incubated in 0.15% (v/v) sodium hypochlorite for 20 min at 37 °C followed by five washes in 0.9% sterile saline by centrifugation at 600× g (5 min) at room temperature (22–24 °C).
Three compounds (designated MPK18, MPK334 and YAK308) shown to have activity against H. contortus in the primary screen were evaluated for their potency by estimating their half maximal inhibitory concentrations (IC50), calculated in a dose-response assay. In brief, compounds were titrated (18-points, 2-fold serial dilution in 50 μL of LB*, 100 µM down to 0.76 nM), in 96-well microtitre plates and xL3s were dispensed in 50 µL at a density of ~300 per well. All plates were incubated at 38 °C and 10% (v/v) CO2 with >90% humidity. After 72 h of incubation, a video recording (5 s) was taken of each well in the same camera settings as the primary screen (see Section 3.3), and larval motility measured. The motility index (Mi) was calculated from video data using the unique algorithm written in a custom macro, and analysed through the program ImageJ (v.2.0.0, Fiji). Mi data were normalised to a percentage compared with negative control (LB* + 0.5% DMSO). Monepantel and moxidectin were diluted in the same manner, and used as positive control compounds. Assays were performed in triplicate, three times, on separate days. To establish IC50 values, compound concentrations were log10-transformed, fitted using a variable slope four-parameter equation, constraining the maximum value to 100% using a least squares (ordinary) fit model employing GraphPad Prism (v. 9.0.2) software.

[3] = test system: exsheathed third-stage larvae (xL3) of Haemonchus contortus; test: Primary phenotypic screen on xL3s at 20 µM (video recording, 72 h); details: for proportion of xL3s exhibiting the phenotype in the primary screen: 72 h, visual inspection of video recordings; for phenotype induced in xL3s in the primary screen: 72 h of exposure
Protocol: A library containing 245 compounds (Supplementary Table S1) was curated by the authors (T.K. and B.L.) at the Institute of Pharmaceutical and Medicinal Chemistry, Heinrich-Heine-University Düsseldorf, Germany. Individual compounds were dissolved in 100% high-performance liquid chromatography-grade dimethyl sulfoxide (DMSO; Merck, USA) to achieve stock concentrations of 20 mM. For screening, individual compounds were diluted further to the final concentration of 20 µM in Luria Bertani broth (LB) supplemented with 100 U/mL of penicillin, 100 μg/mL of streptomycin and 0.25 μg/mL of amphotericin B (designated LB*), and tested for activity in vitro against H. contortus.
as §1
Compounds were screened at 20 μM on H. contortus xL3s using an established assay. In brief, diluted test-compounds, negative controls (LB* + 0.5% DMSO) and two positive controls [20 μM of monepantel (Zolvix, Novartis Animal Health, Switzerland) and 20 μM of moxidectin (Cydectin, Virbac, France)] were added to wells of the 96-well microtiter plates (Corning, USA), and xL3s were dispensed at ~300/well to a final volume of 100 µL. Following a 72 h-incubation at 38 °C and 10% (v/v) CO2 at >90% humidity, a video recording (5 s) was taken of each well of the 96-well microtitre plate containing xL3s using a gray–scale camera (Rolera Bolt Scientific CMOS, Teledyne QImaging, Tucson, AZ, USA) and a motorised X–Y axis stage (BioPoint 2, Ludl Electronics Products, Hawthorne, CA, USA) attached to a stereomicroscope (SZ61, Olympus, Shinjuku, Japan). Primary screening was performed in duplicate. A compound was recorded as having activity if it altered worm morphology (phenotype) after 72 h of incubation.

[4] = test system: exsheathed third-stage larvae (xL3) / fourth-stage larvae (L4) of Haemonchus contortus; test: Dose-response assay, inhibition of larval development (xL3 to L4) and phenotype over 7 days; details: seven days; for phenotype of larvae after exposure for 7 days / proportion of larvae exhibiting the phenotype at 100 µM: 100 µM; for phenotype of larvae after exposure for 7 days: xL3s/L4s; for IC50: Haemonchus contortus, 168 h
Protocol: as §1
Following the measurement of larval motility at 72 h, plates containing xL3s were incubated for four more days at 38 °C [10% (v/v) CO2 and >90% relative humidity] to test the active compounds (MPK18, MPK334 and YAK308) for their effect on the larval development over 7 days. Subsequently, worms were fixed in 1% iodine, and the rate of larval development was assessed microscopically appraising the presence (L4) or absence (xL3) of mouth and pharynx, and direct comparison with negative (untreated) controls (LB* + 0.5% DMSO). Thirty worms from each well were examined at 50-times magnification, and the number of L4s was expressed as a percentage of the total number. Assays were performed in triplicate, three times, on separate days. To establish IC50 values, compound concentrations were log10-transformed, fitted using a variable slope four-parameter equation with constraining the top value to 100% using a least squares (ordinary) fit model using GraphPad Prism (v. 9.0.2) software.

[5] = mean ± SEM, read-out: L4 Development (7 days) IC50 ± SEM

SMILES	CC50 at 48 h [1] [µM]	xL3 Motility (72 h) Inhibition (%) [2] [%]	IC50 [2] [µM]	proportion of xL3s exhibiting the phenotype in the primary screen [3]	phenotype induced in xL3s in the primary screen [3]	phenotype of larvae after exposure for 7 days [4]	IC50 ([4]; read-out: concentration at which active on larval development (IC50 not determined)) [µM]	phenotype induced in xL3s in the primary screen ([3]; listed as YAK 308)	proportion of larvae exhibiting the phenotype at 100 µM [4] [%]	IC50 [4, 5] [µM]
Cc1ccc(/C=C/C(=O)NOCc2ccccc2)cc1 [MPK18]	> 100	30.0	45.2 ± 4.6	~ 50%	coiled	not observed; also recorded: Wild type	> 25	–	–	–
COc1cc(OC)cc(C(=O)Nc2nc(-c3ccccc3)cs2)c1 [YAK308]	> 100	34.6	52.7 ± 6.7	~ 90%	curved	evisceration and evi	–	Curved	22	6.5 ± 1.6
C[C@](C#N)(COc1cc(C#N)ccc1C(F)(F)F)NC(=O)c1ccc(SC(F)(F)F)cc1 [Monepantel, monepantel, reference compound]	> 100	90.3	0.6 ± 0.1	–	Coiled	–	–	–	–	0.4 ± 0.05
CO/N=C1\C[C@]2(C[C@@H]3C[C@@H](C/C=C(\C)C[C@@H](C)/C=C/C=C4\CO[C@@H]5[C@H](O)C(C)=C[C@@H](C(=O)O3)[C@]45O)O2)O[C@H](/C(C)=C/C(C)C)[C@H]1C [Moxidectin, moxidectin, reference compound]	> 100	85.1	0.8 ± 0.2	–	Relaxed	–	–	–	–	12.4 ± 0.1
O=C(/C=C/c1ccccc1)c1ccc(Br)cc1O [MPK334]	> 100	74.2	17.1 ± 4.2	~ 50%	coiled	curved	–	–	100	12.3 ± 2.3
